System: 11β-HSD1 protein
Assay: Immunoblot of 11β-HSD1 protein in prostate cancer cell lines
Type: cell-based, human
Settings: AR-expressing prostate cancer cell lines
Description: For protein analysis, immunoblots were performed as described previously. Li et al., J Clin Endocrinol Metab 98, E1189-1197 (2013). Briefly, total cellular protein was extracted with ice cold RIPA lysis buffer (Sigma-Aldrich) containing protease inhibitors (Roche). 30-50 μg protein was separated by 8% SDS-PAGE gel and then transferred to a nitrocellulose membrane (Millipore). After incubating with the anti-11β-HSD2 antibody (Santa Cruz; 1:3000), anti-11β-HSD1 antibody (Santa Cruz; 1:1000), GR antibody (BD Biosciences; 1:1000), anti-Erlin-2 antibody (Cell Signaling Technology: 1:1000) or anti-AMFR antibody (Proteintech; 1:1000) overnight at 4° C., the appropriate secondary antibody was incubated for 1 hour at room temperature. The chemiluminescent detection system (Thermo Scientific) was used to detect the bands with peroxidase activity. An anti-β-actin antibody (Sigma-Aldrich; 1:5000) was used as a control for sample loading.

Question: How did the 11β-HSD1 protein turn out when `CNC(=O)c1ccc(N2C(=S)N(c3ccc(C#N)c(C(F)(F)F)c3)C(=O)C2(C)C)cc1F` [enzalutamide] was run?
Answer: no consistent effect on 11β-HSD1 was detectable
